Experimental data from patent US10987316B2, “Compositions and methods for transdermal delivery of tertiary amine drugs” (priority 2013, dated 2021).

Assay: In vitro flux of rivastigmine liquid across human skin only
Assay type: in vitro ADME
Details: rivastigmine liquid infinite dose 0.5 ml/cm^2
Experimental: The flux of rivatsigmine liquid (“infinite-dose” of 0.5 ml/cm^2) across systems prepared using different rate controlling membranes (with different vinyl acetate contents and different thicknesses) with or without a 5 mg/cm^2 silicone face adhesive was assessed in an in vitro flux study, as shown below.

With `CCN(C)C(=O)Oc1cccc([C@H](C)N(C)C)c1` [Rivastigmine, (S)-3-[1-(dimethylamino)ethyl]phenyl ethylmethylcarbamate] the “Rivastigmine steady-state flux, human skin only” value was 32 ± 14 μg/cm^2/hr.
